Reference: US6106822A, “Hormone and growth factor phosphoglycokine mimetics from mycobacterium” (University College of London, priority 1995, dated 2000)

What was measured:
isolated adipocytes = assay: lipogenesis assay (incorporation of labelled glucose into lipids of isolated adipocytes); type: cell-based, rat; details: 10 μl of stock solution in final volume of 1.25 ml
Method: The activation of lipogenesis is monitored by measuring the incorporation of uniformly labelled glucose into lipids of isolated adipocytes as described by Rodbell in J. Biol. Chem. (1964) 239, 375-380.
For the lipogenesis assay, 10 μl of the stock solution is added to a final volume of 1.25 ml.

[1] = infusion; normal rats given a glucose load or streptozotocin-treated rats; cited from earlier work

Insulin
Lipogensis (% stimulation) (isolated adipocytes): 273%

OC1C(O)C(O)C(O)C(O)C1O (stereo not drawn) [chiro-inositol]
activity of glycogen synthase I [1]: enhanced activity of glycogen synthase I
plasma glucose [1]: decreased plasma glucose
